Experimental data taken from patent publication US11028090B2 (Dong Wha Pharm. Co., Ltd., priority 2017, dated 2021).
pIC50: −log10 of the molar value. Where a name gives a salt, the structure may show the parent alone. Read-outs that look alike come from different tables or passages of the source.

Target: BRD4 (BD1+BD2) bromodomain (Homo sapiens (Human), UniProt O60885)
Assay: BRD4 binding inhibition (AlphaScreen, GST-BRD4 vs tetraacetylated histone H4 peptide)
Procedure: A mixture comprising 100 nM GST-BRD4 (BD1+BD2) and 100 nM biotinylated acetyl-histone H4 (Lys5,8,12,16) peptide was prepared in assay buffer (50 mM HEPES pH 7.4; 25 mM NaCl; 0.05% Tween 20; 0.1% bovine serum albumin (BSA); 10 mM dithiothreitol (DTT)). After adding 6 μl of the mixture to the diluent, 6 μl of the pre-mixed AlphaLISA Glutathione Acceptor Beads and AlphaScreen Streptavidin Donor Beads (PerkinElmer, 10 μg/ml in assay buffer, respectively) was added thereto. The samples were incubated in the dark at room temperature for 30 minutes (shaking at 300 rpm). Then, the signals were measured with PerkinElmer Envision HTS Multilabel Reader using an alpha screen protocol of PerkinElmer. Each plate contained the negative control in which biotinylated acetyl-histone H4 peptide and GST-BRD4 (BD1+BD2) were replaced by assay buffer. In the case of using the software GraphPad Prism for calculation, the negative control point was input as a low standard value. The positive control (probe molecule l-BET762 containing protein/peptide mixture) proceeded to pipetting.

[1] = GST-BRD4 (BD1+BD2) / biotinylated acetyl-histone H4 (Lys5,8,12,16) peptide, read-out: IC50, BRD4 binding inhibition
[2] = GST-BRD4 (BD1+BD2) vs biotinylated acetyl-histone H4 peptide, AlphaScreen, read-out: BRD4 IC50

Row | SMILES | pIC50 [1] | pIC50 [2]
1 | COc1cccc2c1nc(NCCCCN)c1nnc(C)n12 [Example 118, N^1-(6-methoxy-1-methyl-[1,2,4]triazolo[4,3-a]quinoxaline-4-yl)-butane-1,4-diamine dihydrochloride] | – | 7.27
2 | COc1cccc2c1nc(NCCCCNC(=O)C(C)(C)C)c1nnc(C)n12 [Example 119, N-[4-(6-methoxy-1-methyl-[1,2,4]triazolo[4,3-a]quinoxaline-4-ylamino)-butyl]-2,2-dimethyl-propionamide] | – | 7.10
3 | COc1ccc2nc(NCCCCNC(=O)OC(C)(C)C)c3nnc(C)n3c2c1 [Example 121, [4-(8-methoxy-1-methyl-[1,2,4]triazolo[4,3-a]quinoxaline-4-ylamino)-butyl]-carbamic acid-tert-butylester] | – | 7.26
4 | COc1ccc2nc(NCCCCNC(=O)C(C)(C)C)c3nnc(C)n3c2c1 [Example 123, N-[4-(8-methoxy-1-methyl-[1,2,4]triazolo[4,3-a]quinoxaline-4-ylamino)-butyl]-2,2-dimethyl-propionamide] | ≥ 7.30 | 7.38
5 | COc1c(C)ccc2c1nc(NCCCCNC(=O)OC(C)(C)C)c1nnc(C)n12 [Example 130, {4-[6-methoxy-1,7-dimethyl-[1,2,4]triazolo[4,3-a]quinoxaline-4-ylamino]-butyl}-carbamic acid-tert-butylester] | ≥ 7.30 | 7.44
6 | COc1c(C)ccc2c1nc(NCCCCNC(=O)[C@H](O)C(C)C)c1nnc(C)n12 [Example 136, 2-(R)-hydroxy-N-[4-(6-methoxy-1,7-dimethyl-[1,2,4]triazolo[4,3-a]quinoxaline-4-ylamino)-butyl]-3-methyl-butyramide] | ≥ 7.30 | 7.24
7 | COc1c(C)ccc2c1nc(NCCCCNC(=O)c1ccccc1F)c1nnc(C)n12 [Example 139, 2-fluoro-N-[4-(6-methoxy-1,7-dimethyl-[1,2,4]triazolo[4,3-a]quinoxaline-4-ylamino)-butyl]-benzamide] | ≥ 7.30 | 7.40
8 | COc1cc(C(F)(F)F)cc2c1nc(NCCCCNC(=O)OC(C)C)c1nnc(C)n12 [Example 144, [4-(6-methoxy-1-methyl-8-trifluoromethyl-[1,2,4]triazolo[4,3-a]quinoxaline-4-ylamino)-butyl]-carbamic acid isopropylester] | ≥ 7.30 | 7.42
9 | COc1cc(C(F)(F)F)cc2c1nc(NCCCCNC(=O)CC(C)C)c1nnc(C)n12 [Example 145, N-[4-(6-methoxy-1-methyl-8-trifluoromethyl-[1,2,4]triazolo[4,3-a]quinoxaline-4-ylamino)-butyl]-3-methyl-butyramide] | ≥ 7.30 | 7.33
10 | COc1cc2c(cc1C)nc(NCCCCNC(=O)[C@H](O)C(C)C)c1nnc(C)n12 [Example 152, 2-(R)-hydroxy-N-[4-(8-methoxy-1,7-dimethyl-[1,2,4]triazolo[4,3-a]quinoxaline-4-ylamino)-butyl]-3-methyl-butyramide] | – | 7.02
11 | COc1cc2c(cc1C)nc(NCCCCNC(=O)c1ccccc1)c1nnc(C)n12 [Example 154, N-[4-(8-methoxy-1,7-dimethyl-[1,2,4]triazolo[4,3-a]quinoxaline-4-ylamino)-butyl]-benzamide] | – | 7.11
12 | COc1cc2c(cc1C)nc(NCCCCNC(=O)c1ccccc1F)c1nnc(C)n12 [Example 155, 2-fluoro-N-[4-(8-methoxy-1,7-dimethyl-[1,2,4]triazolo[4,3-a]quinoxaline-4-ylamino)-butyl]-benzamide] | – | 7.11
13 | COc1cc2c(nc(NCCCCNC(=O)CC(C)C)c3nnc(C)n32)c(OC)c1OC [Example 195, 3-methyl-N-[4-(6,7,8-trimethoxy-1-methyl-[1,2,4]triazolo[4,3-a]quinoxaline-4-ylamino)-butyl]-butyramide] | – | 7.16
14 | Cc1nnc2c(NCCCCNC(=O)OC(C)(C)C)nc3cc(C(=O)O)ccc3n12 [Example 200, 4-[(4-tert-butoxycarbamoylamino)-butylamino]-1-methyl-[1,2,4]triazolo[4,3-a]quinoxaline-7-carboxylic acid] | – | 7.15
15 | Cc1nnc2c(NCCCCNC(=O)OC(C)(C)C)nc3cc(C(=O)NC(C)(C)C)ccc3n12 [Example 203, [4-(7-tert--butylcarbamoyl-1-methyl-[1,2,4]triazolo[4,3-a]quinoxaline-4-ylamino)-butyl]-carbamic acid-tert-butylester] | ≥ 7.30 | 7.38
16 | Cc1nnc2c(NCCCCN)nc3cc(-c4nc5ccccc5n4C)ccc3n12 [Example 221, N^1-[1-methyl-7-(1-methyl-1H-benzoimidazole-2-yl)-[1,2,4]triazolo[4,3-a]quinoxaline-4-yl]-butane-1,4-diamine ditrifluoroacetic acid] | – | 7.21
17 | Cc1nnc2c(NCCCCNC(=O)OC(C)(C)C)nc3cc(N)ccc3n12 [Example 243, [4-(7-amino-1-methyl-[1,2,4]triazolo[4,3-a]quinoxaline-4-ylamino)-butyl]-carbamic acid-tert-butylester] | – | 7.19
18 | Cc1nnc2c(NCCCCNC(=O)OC(C)(C)C)nc3cc(C(=O)c4ccccc4)ccc3n12 [Example 260, [4-(7-benzoyl-1-methyl-[1,2,4]triazolo[4,3-a]quinoxaline-4-ylamino)-butyl]-carbamic acid-tert-butylester] | – | 7.21
19 | COc1ccc(C(=O)c2ccc3c(c2)nc(NCCCCNC(=O)OC(C)(C)C)c2nnc(C)n23)cc1 [Example 262, {4-[7-(4-methoxy-benzoyl)-1-methyl-[1,2,4]triazolo[4,3-a]quinoxaline-4-ylamino]-butyl}-carbamic acid-tert-butylester] | – | 7.14
20 | Cc1nnc2c(NCCCCN)nc3cc(OC(F)(F)F)ccc3n12 [Example 270, N^1-(1-methyl-7-trifluoromethoxy-[1,2,4]triazolo[4,3-a]quinoxaline-4-yl)-butane-1,4-diamine ditrifluoroacetic acid] | – | 7.07

The remaining compounds from weak to strong by pIC50 [2], led by results:

Row | pIC50 [1] | pIC50 [2] | SMILES
21 | ≥ 7.30 | 7.46 | COc1cc2nc(NCCCCNC(=O)SC(C)C)c3nnc(C)n3c2cc1OC [Example 110, [4-(7,8-dimethoxy-1-methyl-[1,2,4]triazolo[4,3-a]quinoxaline-4-ylamino)-butyl]-thiocarbamic acid-S-isopropylester]
22 | ≥ 7.30 | 7.47 | Cc1nnc2c(NCCCCNC(=O)OC(C)(C)C)nc3cc(C(=O)NCc4ccc(Cl)cc4)ccc3n12 [Example 211, {4-[7-(4-chloro-benzylcarbamoyl)-1-methyl-[1,2,4]triazolo[4,3-a]quinoxaline-4-ylamino]-butyl}-carbamic acid-tert-butylester]
23 | ≥ 7.30 | 7.48 | Cc1nnc2c(NCCCCNC(=O)C(C)(C)O)nc3cc(-c4nc5ccccc5n4C)ccc3n12 [Example 232, 2-hydroxy-N-{4-(7-(1-methyl-1H-benzoimidazole-2-yl)-1-methyl-[1,2,4]triazolo[4,3-a]quinoxaline-4-ylamino)-butyl}-2-methyl-propionamide]
24 | ≥ 7.30 | 7.51 | COc1ccc2nc(NCCCCNC(=O)[C@H](O)C(C)C)c3nnc(C)n3c2c1 [Example 125, 2-(R)-hydroxy-N-[4-(8-methoxy-1-methyl-[1,2,4]triazolo[4,3-a]quinoxaline-4-ylamino)-butyl]-3-methyl-butyramide]
25 | ≥ 7.30 | 7.52 | CC(=O)OCC(=O)NCCCCNc1nc2cc3c(cc2n2c(C)nnc12)OCCO3 [Example 184]
26 | ≥ 7.30 | 7.59 | Cc1nnc2c(NCCCCNC(=O)CC(C)C)nc3cc(C(=O)O)ccc3n12 [Example 201, 1-methyl-4-[4-(3-methyl-butyrylamino)-butylamino]-[1,2,4]triazolo[4,3-a]quinoxaline-7-carboxylic acid]
27 | ≥ 7.30 | 7.66 | Cc1nnc2c(NCCCCNC(=O)[C@H](O)C(C)C)nc3cc4c(cc3n12)OCCO4 [Example 182, 2-(R)-hydroxy-3-methyl-N-[4-(1-methyl-8,9-dihydro-7,10-dioxa-2,3,5,11b-tetraaza-cyclopenta[a]anthracene-4-ylamino)-butyl]-butyramide]
28 | ≥ 7.30 | 7.72 | COc1c(C)ccc2c1nc(NCCCCNC(=O)OCC(C)C)c1nnc(C)n12 [Example 134, [4-(6-methoxy-1,7-dimethyl-[1,2,4]triazolo[4,3-a]quinoxaline-4-ylamino)-butyl]-carbamic acid isobutylester]
29 | ≥ 7.30 | 7.85 | CC(=O)OC(C)(C)C(=O)NCCCCNc1nc2cc(-c3nc4ccccc4n3C)ccc2n2c(C)nnc12 [Example 231, acetic acid-1-{4-[7-(1-methyl-1H-benzoimidazole-2-yl)-1-methyl-[1,2,4]triazolo[4,3-a]quinoxaline-4-ylamino]-butylcarbamoyl}-1-methyl-ethylester]
30 | ≥ 8.00 | 8.15 | COCCn1c(-c2ccc3c(c2)nc(NCCCCNC(=O)CC(C)C)c2nnc(C)n23)nc2ccccc21 [Example 241, N-(4-{7-[1-(2-methoxy-ethyl)-1H-benzoimidazole-2-yl]-1-methyl-[1,2,4]triazolo[4,3-a]quinoxaline-4-ylamino}-butyl)-3-methyl-butyramide]
31 | ≥ 8.00 | 8.40 | COc1ccc2nc(NCCCCNC(=O)[C@@H](O)C(C)C)c3nnc(C)n3c2c1 [Example 126, 2-(S)-hydroxy-N-[4-(8-methoxy-1-methyl-[1,2,4]triazolo[4,3-a]quinoxaline-4-ylamino)-butyl]-3-methyl-butyramide]
